{"source": "patent US9284325B2", "about": "“Spectinamides as anti-tuberculosis agents” (UNIVERSITY OF TENNESSEE RESEARCH FOUNDATION, priority 2009, dated 2016)", "key": {"E. coli ribosomes": {"tested_on": "E. coli ribosomes", "assay_type": "biochemical"}, "[1]": {"tested_on": "Strenotrophomonas maltophilia ATCC 13637", "assay": "MIC determination by microbroth dilution", "assay_type": "cell-based"}, "in vivo": {"assay": "in vivo", "parameters": "species or system rats", "conditions": "male, Sprague-Dawley, rat, iv", "method": "Pharmacokinetic Studies: Catheterized male Sprague-Dawley rats (jugular vein alone for oral study and jugular vein and femoral vein for intravenous study) weighing approximately 225 g were obtained from Harlan Bioscience (Indianapolis, Ind., United States of America). The animals were kept on a 12 hr light/dark cycle with food and water available ad libitum. Groups of rats (n=4) received either an intravenous (IV) or oral dose of a test compound at a dose level of 10 mg/kg or 100 mg/kg, respectively. For oral administration, the animals were fasted overnight and until 4 hr after administration of test compound. Serial blood samples (approx. 250 μL) were collected pre-dose and at predetermined time points post-dose until 48 hours. Plasma was separated immediately by centrifugation (10,000 rpm for 10 min at 4° C.) and stored at −80° C. until analysis. Urine specimens were collected for a period of 48 hours following drug administration. The study protocol was approved by the institutional animal care and use committee of the University of Tennessee Health Science Center (Memphis, Tenn., United States of America).\nSample Preparation and LC-MS/MS Assay: A calibration curve ranging from 7.81-1000 μg/L was constructed for each test compound by spiking the test compound into 50 μL of blank plasma. […] Plasma proteins were precipitated by the addition of four volumes of ice cold methanol containing IS. These samples were vortexed and kept on ice for 20 minutes. Following this, the samples were centrifuged at 10,000 rpm for 10 minutes at 4° C. and the supernatants were diluted if necessary and injected onto LC-MS/MS for analysis. Chromatographic separations were carried out using a Shimadzu liquid chromatograph (Shimadzu Corporation, Kyoto, Japan) consisting of two pumps, online degasser, system controller and a CTC Leap auto sampler (Leap Technologies, Carrboro, N.C., United States of America). A gradient of methanol and 10 mM ammonium acetate at pH 3.5 was used at a flow rate of 0.4 mL/min. A Phenomenex® Luna 3μ HILIC, 100×4.6 mm column (Phenomenex, Torrance, Calif., United States of America) protected with a guard column was used for the separation. 10 μL of sample was injected onto the column and the eluate was led directly into an API 3000 triple-quadrupole mass spectrometer (Applied Biosystems ABI/MDS-Sciex, Foster City, Calif., United States of America) equipped with an electrospray ion source. The instrument was operated in the positive ion mode with nebulizer gas (NEB) at 7 psi, curtain gas (CUR) at 8 psi, collision gas (CAD) at 10 psi, ion spray voltage (IS) at +4000 V and temperature (TEM) at 500° C. The resulting multiple reaction monitoring chromatograms were used for quantification using Analyst software version 1.4.1 (Applied Biosystems ABI/MDS-Sciex, Foster City, Calif., United States of America).\nPharmacokinetic Data Analysis: Plasma concentration-time data for oral dose were analyzed by non-compartmental analysis. A two compartment open model with bolus input and first order output was used to analyze the IV plasma concentration-time data. The area under the plasma concentration-time curve from time 0 to infinity (AUCinf) was calculated by the trapezoidal rule with extrapolation to time infinity. Mean residence time (MRT), the average amount of time a particle remains in a compartment of system was calculated for IV dose using MRT=AUMCinf/AUCinf where AUMCinf is the area under the moment curve when the concentration-time curve is extrapolated to infinity. The systemic clearance (CL) was calculated using the equation CL=Doseiv/AUCinf iv, where Doseiv and AUCinf, iv are the IV dose and corresponding area under the plasma concentration-time curve from time 0 to infinity, respectively. An estimate of volume of distribution at steady state (Vss) was obtained from IV data using Vss=MRT*CL. […]"}}, "note": "Counter-ions that a name gives are not always drawn.", "data": [{"compound": "CN[C@@H]1[C@H](O)[C@H](NC)C2O[C@]3(O)C(OC2[C@H]1O)O[C@H](C)C[C@H]3NC(=O)Cc1ccccn1", "note": "(stereo partly drawn) [Compound 1329, 3′-Dihydro-3′-deoxy-4(R)-(pyridin-2yl)acetylamino spectinomycin Dihydrochloride]", "values": [{"measurement": "IC50", "setting": "E. coli ribosomes; E. coli S30 system, FIG. 4, read-out: concentration causing 50% reduction in the synthesis of luciferase", "result": 660, "unit": "nM"}, {"measurement": "IC50, 50% inhibition of luciferase biosynthesis in S30 assay", "setting": "E. coli ribosomes; E. coli S30 transcription/translation assay", "result": 0.29, "unit": "µg/mL"}, {"measurement": "MIC", "setting": "[1]", "result": 200, "unit": "µg/mL"}, {"measurement": "clearance", "setting": "in vivo", "result": 13.3, "unit": "mL/min/kg"}, {"measurement": "dose eliminated unchanged in the first 6 hours", "setting": "in vivo", "result": "approx. 40%"}, {"measurement": "excretion ratio (renal clearance to glomerular filtration rate)", "setting": "in vivo", "result": 1.7}, {"measurement": "fraction of dose excreted unchanged by the kidneys", "setting": "in vivo", "result": 0.46}, {"measurement": "hepatic extraction ratio", "setting": "in vivo", "result": 0.13}, {"measurement": "MRT", "setting": "in vivo; 10 mg/kg", "result": "~5.3", "unit": "h"}]}]}
